Paper PMC10424179, “Disrupting Kaposi’s Sarcoma-Associated Herpesvirus (KSHV) Latent Replication with a Small Molecule Inhibitor” (Journal of Medicinal Chemistry, 2023)

What was measured:
[1] = biological target: LANA–DNA interaction (oligomerization-deficient LANA DBD aa 1008–1146 mutant / LBS1) (Human herpesvirus 8 (Kaposi's sarcoma-associated herpesvirus), UniProt Q76SB0); assay: Electrophoretic mobility shift assay (EMSA), LANA DBD mutant with LBS1 oligonucleotide; assay type: biochemical, Kaposi's sarcoma-associated herpesvirus (KSHV)
Procedure: In these assays, an oligomerization-deficient mutant of a LANA C-terminal protein fragment (aa 1008–1146) and an oligonucleotide representing LANA-binding site (LBS) 1 were used, which are convenient to use and handle for the described biophysical methods, while maintaining the essential DNA-binding interface.[25]
Equation y = A2 + (A1-A2)/(1 + (x/x0)^p) […]
1.4 Electrophoretic Mobility Shift Assay (EMSA)
The EMSA was carried out with slight modific ations as described previously 2 based on the assay in Hellert et al. (2013). 3 His-tagged oligomerization-deficient LANA DBD (aa1008-1146) mutant protein or LANA DBD (aa934-1162) wild type protein (200 nM final) was incubated with a 5´-Dy682-labeled double stranded DNA probe (IBA Lifesciences) (20 nM final) for 30 minutes at RT in the dark. The reaction buffer consisted of 30 mM Tris HCl pH 7.5, 50 mM KCl, 10 mM MgCl2, 1 mM DTT, 1 mM EDTA, 10% glycerol, 0.25% Tween20, 0.5 mg/mL BSA and 0.05 mg/mL poly(dI-dC). […]
dark. 10 µL of the reaction was run on a pre -run native 5% acrylamide gel for 45 minutes at 100V with tris-borate-EDTA buffer. Images of the gels were acquired and analysed with the Odyssey (Licor) using the Image Studio software.
Fig S2: Gels of EMSA experiments at 250 μM for all compounds (A) and dose-dependent curves for compound 20 using LANA DBD mutant (B) and LANA wildtype (C) as well as LBS1. Values are means […]
Gleichung y = A2 + (A1-A2)/(1 + (x/x0)^p) […]

Chromatographic LogD7.4 = assay type: physicochemical; details: reversed-phase HPLC, NUCLEODUR C18 Pyramid column; pH 7.4, HPLC-MS based; read-out: Chrom. LogD7.4
Procedure: (§1) The next step was an in vitro ADMET profiling of the best seven compounds so far: 9, 11, 14, 19, 20, 21, and 27. The compounds were tested for their kinetic solubility (1% DMSO in PBS, pH 7.4), lipophilicity (chromatographic Log D7.4 value), cellular permeability (using Caco-2 cells), and metabolic stability (using mouse and human liver S9 fractions) (see Table 3). […]
LogD7.4 was analyzed using an HPLC−MS based method. The retention time of 12 compounds with known LogD7.4 was determined and plotted toward their LogD7.4. Linear regression was used to determine the LogD7.4 of unknown compounds. Analysis was performed using a Dionex Ultimate 3000 HPLC system coupled to a TSQ Quantum Access MAX (Thermo Fisher, Dreieich, Germany) with the following conditions: EC150/2 NUCLEODUR C18 Pyramid column, 5 μM (Macherey Nagel, Düren, Germany); eluent A: 50 mM NH4OAc pH 7.4, eluent B: acetonitrile, and flow: 0.6 mL/min. The gradient was set to 0−100% B from 0 to 2.5 min, […]
are means of two replicates. […]

Caco-2 cell permeability = assay type: in vitro ADME; details: human, pH 7.4, Caco-2 monolayer, apical to basolateral
Procedure: The next step was an in vitro ADMET profiling of the best seven compounds so far: 9, 11, 14, 19, 20, 21, and 27. The compounds were tested for their kinetic solubility (1% DMSO in PBS, pH 7.4), lipophilicity (chromatographic Log D7.4 value), cellular permeability (using Caco-2 cells), and metabolic stability (using mouse and human liver S9 fractions) (see Table 3).
MTT Assay: Viability of HEK293 cells ~48 hours after treatment […]
Fig S4: MTT assay for compounds 11, 14, 19, 20 and 21 using HEK293 cells. Values are means of […]
Permeability of the compounds was assessed using Caco2 monolayers grown on Transwell® (3460 Costar, Corning). In brief, cells were seeded 60.000 cells/well in 12-well Transwell plates in DMEM medium supplemented with 10% FCS and 1% NEAA. Cells were grown for 7 to 9 days with medium replacement every other day until they reached a tight monolayer. Tightness was defined as transepithelial resistance (TEER) values >300 Ω/cm² (measured using an EVOM Volt-Ohmmeter, World Precision Instruments). At the day of permeability as say, the compound stock solutions in DMSO were diluted to 10µM in Krebs -Ringer-buffer (KRB, pH 7.4). Cells treated with KRB only served as control. Monolayer was washed two times with prewarmed KRB and incubated with 500 µl sample on the apical compartment. Samples from the basolateral side were drawn at t = 0, 15, 30, 60, 120, 180 and 300 min and replaced with fresh buffer. The plates were incubated for 5 h in a cell culture incubator with lateral shaking (200 rpm). TEER values were measured again at the end of the permeability test. Compound concentration was determined with HPLC-ESI-MS/MS in SRM mode and calculated for the cumulative transport. Values are means of three replicates.

[2] = Metabolic stability in mouse liver S9 fraction; assay type: in vitro ADME; details: pooled liver S9 fraction, mouse liver S9, 1 μM compound
Procedure: as §1
1.7 Metabolic Stability in Liver S9 Fractions
For the evaluation of combined phase I and phase II metabolic stability, the compound (1 μM) was incubated with 1 mg/mL pooled mouse liver S9 fraction (Xenotech, Kansas City, USA) or human liver S9 fraction (Corning, USA), 2 mM NADPH, 1 mM UDPGA, 10 mM MgCl 2, 5 mM GSH and 0.1 mM PAPS at 37 °C for 240 min. The metabolic stability of testosterone, verapamil and ketoconazole were determined in parallel to confirm the enzymatic activity of mouse S9 fractions, for human S9 testosterone, diclofenac and propranolol were used. The incubation was stopped after defined time points by precipitation of aliquots of S9 enzymes with 2 volumes of cold acetonitrile containing internal standard (150 nM diphenhydramine). Samples were stored on ice until the end of the incubation and precipitated protein was removed by centrifugation (15 min, 4 °C, 4,000 g). Concentration of the remaining test compound at the different time points was analyzed by HPLC-MS/MS (TSQ Quantum Access MAX, Thermo Fisher, Dreieich, Germany) and used to determine half -life (t1/2). Values are means of three

COc1ccc(-c2cc(C)c(-n3cc(-c4ccc(C(=O)O)cc4)nn3)cn2)c(Cl)c1 [Compound 20]
Inhibition (EMSA, LBS1) @250 μM ([1]; compound at 250 μM, LBS1 oligonucleotide, LANA aa 1008–1146 mutant): 93% | IC50 ([1]; read-out: x0 of logistic fit, dose-dependent EMSA curve (converted), Fig S2, LBS1, curve with A2 95.7, assigned to LANA DBD mutant): 43.7 µM | chromatographic logD (Chromatographic LogD7.4): 0.75 | Papp A→B at 5 h, 10 µM (Caco-2 cell permeability): 10.3 ± 2.3 ×10⁻⁶ cm/s | microsomal CLint at 1 µM ([2]; read-out: MetStab Mouse Liver S9 Clint): < 5.8 µL/min/mg | half-life at 1 µM ([2]; read-out: MetStab Mouse Liver S9 t1/2): > 2 h
